Legend:
Test in all cases: cells
ES4 = type: functional, cell-based, Homo sapiens; conditions: Homo sapiens, ES4;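 also: growth inhibition of human ES4 cells, read out by a cell viability assay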
Description: SANGER: Inhibition of human ES4 cell growth in a cell viability assay.

GI-ME-N = type: functional, cell-based, Homo sapiens; conditions: Homo sapiens, GI-ME-N;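 also: growth inhibition of human GI-ME-N cells, read out with a cell viability assay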
Description: SANGER: Inhibition of human GI-ME-N cell growth in a cell viability assay.

VA-ES-BJ = type: functional, cell-based, Homo sapiens; conditions: Homo sapiens, VA-ES-BJ;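 also: growth inhibition of the VA-ES-BJ cell line, read out by a cell viability assay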
Description: SANGER: Inhibition of human VA-ES-BJ cell growth in a cell viability assay.

MN-60 = type: functional, cell-based, Homo sapiens; conditions: Homo sapiens, MN-60;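 also: growth inhibition of the MN-60 cell line, determined with a cell viability assay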
Description: SANGER: Inhibition of human MN-60 cell growth in a cell viability assay.

TGBC24TKB = type: functional, cell-based; conditions: Homo sapiens;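 also: growth inhibition of human TGBC24TKB cells, read out with a cell viability assay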
Description: SANGER: Inhibition of human TGBC24TKB cell growth in a cell viability assay.

HCC2218 = type: functional, cell-based, Homo sapiens; conditions: Homo sapiens, HCC2218;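 also: cell viability assay read-out, with IC50 given as the concentration that inhibits growth of the cell line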
Description: SANGER: Inhibition of human HCC2218 cell growth in a cell viability assay.

RXF 393 = type: functional, cell-based, Homo sapiens; conditions: Homo sapiens, RXF 393;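 also: growth inhibition of human RXF 393 cells, read out with a cell viability assay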
Description: SANGER: Inhibition of human RXF393 cell growth in a cell viability assay.

CTB-1 = type: functional, cell-based, Homo sapiens; conditions: Homo sapiens, CTB-1
Description: SANGER: Inhibition of human CTB-1 cell growth in a cell viability assay.

NCI-H446 = type: functional, cell-based, Homo sapiens; conditions: Homo sapiens, NCI-H446;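 also: growth inhibition of NCI-H446 cells determined by a cell viability assay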
Description: SANGER: Inhibition of human NCI-H446 cell growth in a cell viability assay.

KURAMOCHI = type: functional, cell-based, Homo sapiens; conditions: Homo sapiens, KURAMOCHI;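 also: growth inhibition of KURAMOCHI cells, read out with a cell viability assay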
Description: SANGER: Inhibition of human KURAMOCHI cell growth in a cell viability assay.

GOTO = type: functional, cell-based, Homo sapiens; conditions: Homo sapiens, GOTO;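 also: growth inhibition of GOTO cells, read out by a cell viability assay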
Description: SANGER: Inhibition of human GOTO cell growth in a cell viability assay.

LU-139 = type: functional, cell-based, Homo sapiens; conditions: Homo sapiens, LU-139
Description: SANGER: Inhibition of human LU-139 cell growth in a cell viability assay.

Mo = type: functional, cell-based, Homo sapiens; conditions: Homo sapiens, Mo
Description: SANGER: Inhibition of human Mo-T cell growth in a cell viability assay.

TGBC1TKB = type: functional, cell-based, Homo sapiens; conditions: Homo sapiens, TGBC1TKB;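 also: growth inhibition of TGBC1TKB cells, read out by a cell viability assay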
Description: SANGER: Inhibition of human TGBC1TKB cell growth in a cell viability assay.

BB49-HNC = type: functional, cell-based, Homo sapiens; conditions: Homo sapiens, BB49-HNC;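 also: cell viability assay read-out, reported as inhibition of BB49-HNC cell growth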
Description: SANGER: Inhibition of human BB49-HNC cell growth in a cell viability assay.

KALS-1 = type: functional, cell-based, Homo sapiens; conditions: Homo sapiens, KALS-1; read-out: IC50;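 also: growth inhibition of KALS-1 cells, determined with a cell viability assay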
Description: SANGER: Inhibition of human KALS-1 cell growth in a cell viability assay.

no-10 = type: functional, cell-based, Homo sapiens; conditions: Homo sapiens;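 also: growth inhibition of no-10 cells, read out with a cell viability assay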
Description: SANGER: Inhibition of human no-10 cell growth in a cell viability assay.

SK-MEL-1 = type: functional, cell-based, Homo sapiens; conditions: Homo sapiens, SK-MEL-1;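 also: growth inhibition of human SK-MEL-1 cells, read out by a cell viability assay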
Description: SANGER: Inhibition of human SK-MEL-1 cell growth in a cell viability assay.

MC116 = type: functional, cell-based, Homo sapiens; conditions: Homo sapiens, MC116;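 also: growth inhibition of MC116 cells, read out with a cell viability assay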
Description: SANGER: Inhibition of human MC116 cell growth in a cell viability assay.

KS-1 = type: functional, cell-based; conditions: Homo sapiens;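 also: growth inhibition of KS-1 cells, read out with a cell viability assay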
Description: SANGER: Inhibition of human KS-1 cell growth in a cell viability assay.

NOS-1 = type: functional, cell-based, Homo sapiens; conditions: Homo sapiens, NOS-1;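 also: growth inhibition of the human NOS-1 cell line, read out with a cell viability assay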
Description: SANGER: Inhibition of human NOS-1 cell growth in a cell viability assay.

ETK-1 = type: functional, cell-based, Homo sapiens; conditions: Homo sapiens, ETK-1;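 also: growth inhibition of human ETK-1 cells, read out with a cell viability assay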
Description: SANGER: Inhibition of human ETK-1 cell growth in a cell viability assay.

LB831-BLC = type: functional, cell-based, Homo sapiens; conditions: Homo sapiens, LB831-BLC;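 also: growth inhibition of LB831-BLC cells, read out with a cell viability assay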
Description: SANGER: Inhibition of human LB831-BLC cell growth in a cell viability assay.

MSTO-211H = type: functional, cell-based, Homo sapiens; conditions: Homo sapiens, MSTO-211H
Description: SANGER: Inhibition of human MSTO-211H cell growth in a cell viability assay.

KU812 cell line = type: functional, cell-based, Homo sapiens; conditions: Homo sapiens, KU812;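 also: growth inhibition of KU812 cells, read out with a cell viability assay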
Description: SANGER: Inhibition of human KU812 cell growth in a cell viability assay.

IST-MEL1 = type: functional, cell-based, Homo sapiens; conditions: Homo sapiens, IST-MEL1;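 also: growth inhibition of the cell line, read out with a cell viability assay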
Description: SANGER: Inhibition of human IST-MEL1 cell growth in a cell viability assay.

ONS-76 = type: functional, cell-based, Homo sapiens; conditions: Homo sapiens, ONS-76;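 also: growth inhibition of human ONS-76 cells, read out with a cell viability assay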
Description: SANGER: Inhibition of human ONS-76 cell growth in a cell viability assay.

JVM-2 = type: functional, cell-based, Homo sapiens; conditions: Homo sapiens, JVM-2;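 also: growth inhibition of JVM-2 cells determined by a cell viability assay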
Description: SANGER: Inhibition of human JVM-2 cell growth in a cell viability assay.

HL-60 = type: functional, cell-based, Homo sapiens; conditions: Homo sapiens, HL-60;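 also: growth inhibition of human HL-60 cells, read out with a cell viability assay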
Description: SANGER: Inhibition of human HL-60 cell growth in a cell viability assay.

EW-3 = type: functional, cell-based, Homo sapiens; conditions: Homo sapiens, EW-3;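 also: cell viability assay read-out, IC50 reflects inhibition of growth of the EW-3 cells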
Description: SANGER: Inhibition of human EW-3 cell growth in a cell viability assay.

697 = type: functional, cell-based, Homo sapiens; conditions: Homo sapiens
Description: SANGER: Inhibition of human 697 cell growth in a cell viability assay.

TGW = type: functional, cell-based, Homo sapiens; conditions: Homo sapiens, TGW;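 also: growth inhibition of human TGW cells, read out with a cell viability assay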
Description: SANGER: Inhibition of human TGW cell growth in a cell viability assay.

K562 = type: functional, cell-based, Homo sapiens; conditions: Homo sapiens, K562
Description: SANGER: Inhibition of human K-562 cell growth in a cell viability assay.

DB = type: functional, cell-based, Homo sapiens; conditions: Homo sapiens, DB
Description: SANGER: Inhibition of human DB cell growth in a cell viability assay.

SW982 = type: functional, cell-based; conditions: Homo sapiens;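 also: growth inhibition of SW982 cells, read out with a cell viability assay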
Description: SANGER: Inhibition of human SW982 cell growth in a cell viability assay.

NCI-H1650 = type: functional, cell-based, Homo sapiens; conditions: Homo sapiens, NCI-H1650;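 also: growth inhibition of human NCI-H1650 cells measured by a cell viability assay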
Description: SANGER: Inhibition of human NCI-H1650 cell growth in a cell viability assay.

KP-N-YS = type: functional, cell-based, Homo sapiens; conditions: Homo sapiens, KP-N-YS;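 also: cell viability assay measuring inhibition of cell line growth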
Description: SANGER: Inhibition of human KP-N-YS cell growth in a cell viability assay.

RCC10RGB = type: functional, cell-based, Homo sapiens; conditions: Homo sapiens, RCC10RGB;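 also: growth inhibition of human RCC10RGB cells, read out by a cell viability assay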
Description: SANGER: Inhibition of human RCC10RGB cell growth in a cell viability assay.

KNS-42 = type: functional, cell-based; conditions: Homo sapiens;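 also: growth inhibition of KNS-42 cells, read out with a cell viability assay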
Description: SANGER: Inhibition of human KNS-42 cell growth in a cell viability assay.

TE-11 = type: functional, cell-based; conditions: Homo sapiens;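 also: growth inhibition of human TE-11 cells, read out by a cell viability assay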
Description: SANGER: Inhibition of human TE-11 cell growth in a cell viability assay.

SCC-15 = type: functional, cell-based, Homo sapiens; conditions: Homo sapiens, SCC-15;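 also: growth inhibition of SCC-15 cells, read out with a cell viability assay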
Description: SANGER: Inhibition of human SCC-15 cell growth in a cell viability assay.

SF-539 = type: functional, cell-based, Homo sapiens; conditions: Homo sapiens, SF-539;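 also: Read-out is a cell viability assay, with IC50 reflecting inhibition of cell growth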
Description: SANGER: Inhibition of human SF539 cell growth in a cell viability assay.

ES5 = type: functional, cell-based, Homo sapiens; conditions: Homo sapiens, ES5;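 also: growth inhibition of human ES5 cells, read out by a cell viability assay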
Description: SANGER: Inhibition of human ES5 cell growth in a cell viability assay.

EKVX = type: functional, cell-based, Homo sapiens; conditions: Homo sapiens, EKVX;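 also: growth inhibition of human EKVX cells, read out with a cell viability assay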
Description: SANGER: Inhibition of human EKVX cell growth in a cell viability assay.

NCI-H2126 = type: functional, cell-based, Homo sapiens; conditions: Homo sapiens, NCI-H2126;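 also: growth inhibition of the cancer cell line, determined with a cell viability readout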
Description: SANGER: Inhibition of human NCI-H2126 cell growth in a cell viability assay.

HT-144 = type: functional, cell-based, Homo sapiens; conditions: Homo sapiens, HT-144
Description: SANGER: Inhibition of human HT-144 cell growth in a cell viability assay.

MZ1-PC = type: functional, cell-based, Homo sapiens; conditions: Homo sapiens, MZ1-PC;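 also: cell viability assay measuring growth inhibition of human MZ1-PC cells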
Description: SANGER: Inhibition of human MZ1-PC cell growth in a cell viability assay.

RPMI-8866 = type: functional, cell-based, Homo sapiens; conditions: Homo sapiens, RPMI-8866
Description: SANGER: Inhibition of human RPMI-8866 cell growth in a cell viability assay.

KGN = type: functional, cell-based, Homo sapiens; conditions: Homo sapiens, KGN;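 also: growth inhibition of KGN cells, read out with a cell viability assay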
Description: SANGER: Inhibition of human KGN cell growth in a cell viability assay.

EM-2 = type: functional, cell-based, Homo sapiens; conditions: Homo sapiens, EM-2;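 also: growth inhibition of EM-2 cells, read out with a cell viability assay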
Description: SANGER: Inhibition of human EM-2 cell growth in a cell viability assay.

SH-4 = type: functional, cell-based; conditions: Homo sapiens;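 also: growth inhibition of SH-4 cells, read out with a cell viability assay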
Description: SANGER: Inhibition of human SH-4 cell growth in a cell viability assay.

With `Cc1ccc(C(=O)Nc2ccc(CN3CCN(C)CC3)c(C(F)(F)F)c2)cc1C#Cc1cnc2cccnn12` [PONATINIB] the IC50 (ES4) was > 512 nM, the IC50 (GI-ME-N) was > 512 nM and the IC50 (VA-ES-BJ) was > 512 nM. For the same compound, the IC50 (MN-60) was > 512 nM, the IC50 (TGBC24TKB) was > 512 nM and the IC50 (HCC2218) was > 512 nM. For the same compound, the IC50 (RXF 393) was > 512 nM, the IC50 (CTB-1) was 173 nM and the IC50 (NCI-H446) was > 512 nM. For the same compound, the IC50 (KURAMOCHI) was 284 nM, the IC50 (GOTO) was > 512 nM and the IC50 (LU-139) was > 512 nM. For the same compound, the IC50 (Mo) was > 512 nM, the IC50 (TGBC1TKB) was > 512 nM and the IC50 (BB49-HNC) was > 512 nM. For the same compound, the IC50 (KALS-1) was > 512 nM, the IC50 (no-10) was > 512 nM and the IC50 (SK-MEL-1) was > 512 nM. The IC50 (MC116) was > 512 nM, the IC50 (KS-1) was > 512 nM and the IC50 (NOS-1) was 244 nM. For the same compound, the IC50 (ETK-1) was > 512 nM, the IC50 (LB831-BLC) was > 512 nM and the IC50 (MSTO-211H) was > 512 nM. The IC50 (KU812 cell line) was 28.5 nM, the IC50 (IST-MEL1) was > 512 nM and the IC50 (ONS-76) was > 512 nM. The IC50 (JVM-2) was > 512 nM, the IC50 (HL-60) was > 512 nM and the IC50 (EW-3) was > 512 nM. The IC50 697 was 189 nM, the IC50 (TGW) was > 512 nM and the IC50 (K562) was > 512 nM. The IC50 (DB) was > 512 nM, the IC50 (SW982) was 300 nM and the IC50 (NCI-H1650) was > 512 nM. For the same compound, the IC50 (KP-N-YS) was > 512 nM, the IC50 (RCC10RGB) was > 512 nM and the IC50 (KNS-42) was > 512 nM. The IC50 (TE-11) was > 512 nM, the IC50 (SCC-15) was > 512 nM and the IC50 (SF-539) was > 512 nM. The IC50 (ES5) was > 512 nM, the IC50 (EKVX) was > 512 nM and the IC50 (NCI-H2126) was > 512 nM. The IC50 (HT-144) was 313 nM, the IC50 (MZ1-PC) was 113 nM and the IC50 (RPMI-8866) was > 512 nM. For the same compound, the IC50 (KGN) was > 512 nM.

With `Nc1ccccc1NC(=O)c1ccc(CNC(=O)OCc2cccnc2)cc1` [ENTINOSTAT] the IC50 (ES4) was 859 nM, the IC50 (GI-ME-N) was 4060 nM and the IC50 (VA-ES-BJ) was > 5000 nM. The IC50 (MN-60) was 4110 nM, the IC50 (HCC2218) was 1170 nM and the IC50 (RXF 393) was > 5000 nM. The IC50 (CTB-1) was 3050 nM, the IC50 (NCI-H446) was > 5000 nM and the IC50 (KURAMOCHI) was 1770 nM. The IC50 (GOTO) was 951 nM, the IC50 (LU-139) was 335 nM and the IC50 (Mo) was > 5000 nM. For the same compound, the IC50 (TGBC1TKB) was > 5000 nM, the IC50 (BB49-HNC) was 2920 nM and the IC50 (KALS-1) was 705 nM. The IC50 (no-10) was 1230 nM, the IC50 (SK-MEL-1) was > 5000 nM and the IC50 (MC116) was 1440 nM. It also gave an IC50 (KS-1) of 881 nM, an IC50 (NOS-1) of 196 nM and an IC50 (ETK-1) of 1790 nM. The IC50 (LB831-BLC) was 1840 nM, the IC50 (MSTO-211H) was 1480 nM and the IC50 (EM-2) was 241 nM. For the same compound, the IC50 (SH-4) was 1020 nM, the IC50 (KU812 cell line) was 1700 nM and the IC50 (IST-MEL1) was 1180 nM. The IC50 (ONS-76) was 582 nM, the IC50 (JVM-2) was > 5000 nM and the IC50 (HL-60) was 543 nM. For the same compound, the IC50 (EW-3) was > 5000 nM, the IC50 697 was 99.8 nM and the IC50 (TGW) was 1080 nM. For the same compound, the IC50 (K562) was 1390 nM, the IC50 (DB) was 1700 nM and the IC50 (NCI-H1650) was > 5000 nM. The IC50 (KP-N-YS) was > 5000 nM, the IC50 (RCC10RGB) was > 5000 nM and the IC50 (KNS-42) was > 5000 nM. For the same compound, the IC50 (SF-539) was 196 nM, the IC50 (ES5) was > 5000 nM and the IC50 (EKVX) was > 5000 nM. For the same compound, the IC50 (NCI-H2126) was > 5000 nM, the IC50 (HT-144) was 303 nM and the IC50 (MZ1-PC) was 3620 nM. The IC50 (RPMI-8866) was 1600 nM and the IC50 (KGN) was 2770 nM.

From ChEMBL document CHEMBL1201861, “Genomics of Drug Sensitity in Cancer screening data, Wellcome Trust Sanger Institute”
